Measured values reported in patent publication US20230255872A1, “ORAL CARE COMPOSITIONS AND METHODS” (DENTHERAPY LTD, priority 2020, published 2023).
Read-outs that look alike come from different tables or passages of the source.

Tests used:
[1] = Vickers microindentation erosive lesion rehardening model, MOK vs MOL (Example 3); conditions: bovine enamel, treated twice a day for seven days, spray approx 0.1 ml, N=8
Protocol: Introduction. […] The objective of the study was to ascertain if formulation development for ToothBoost retained remineralizing efficacy. Four treatment groups were placed in the study: 1. MOK (legacy formulation), 2. Phosphate free ToothBoost MOL (development formulation), 3. 500 ppm fluoride solution made from MFP, 4. Deionised water. N=8 enamel specimens per treatment group.
Enamel blocks are prepared from sound disease free human molars or bovine incisors and mounted in 25 mm diameter resin discs. After curing the underside of the disc is flattened using p400 grit paper. […]
The discs are then rinsed under deionised water and sonicated for five minutes. Initial microhardness of the sound enamel is measured by microindentation to determine that the enamel is sufficiently mineralized for the purpose of the study and to record the microhardness of the sound enamel. […]
Method. […] The microhardness of the de-mineralized enamel is then measured and the enamel discs organised so that each group have a similar range of microhardness values.
The citric acid eroded bovine enamel specimens were then treated twice a day for seven days. […] At the end of day seven, the enamel specimens were rinsed in deionised water, dried and the micro hardness of the enamel was measured by Vickers microindentation to determine the extent of the re-mineralization of the enamel lesions. […]

[2] = Protocol: Introduction. The remineralisation potential of three formulations: deionised water, 500 ppm fluoride solution from MFP and fluoride free Toothboost MOL-15 formulation were tested in a standard microindentation erosive lesion rehardening model, as described above in example 3. The objective of this study was to ascertain if fluoride free Toothboost MOL-15 formulation has the potential to remineralise erosive lesions without the presence of fluoride.
Method. Five times a day for five days human enamel specimens with citric acid erosive lesions were sprayed with 0.15 g of the test formulations and incubated in artificial saliva (containing 1500 units/L of phosphatase) at 37° C. between treatments. The microhardness of the enamel specimens was remeasured after five days and the degree of re-mineralization calculated using the boundary conditions of 100% mineralized for the hardness of the initial enamel before the formation of the lesions and 0% mineralization for the hardness of the enamel after the formation of the lesion.

[3] = remark: listed apart in the source
Protocol: Introduction. The remineralisation potential of three formulations: deionised water, 1450 ppm fluoride solution from MFP and fluoride free BoostPaste MON-6 formulation were tested in a standard microindentation erosive lesion rehardening model as described above in example 3. The objective of this study was to ascertain if fluoride free Boostpaste MON-6 formulation has the potential to remineralise erosive lesions without the presence of fluoride.
Method. Twice a day for five days human enamel specimens with citric acid erosive lesions were brushed with the test formulations and incubated in artificial saliva (containing 1500 units/L of phosphatase) at 37° C. between treatments. The microhardness of the enamel specimens was remeasured each day for five days and the degree of re-mineralization calculated using the boundary conditions of 100% mineralized for the hardness of the initial enamel before the formation of the lesions and 0% mineralization for the hardness of the enamel after the formation of the lesion.

[4] = Further stain prevention cycling study (Example 8); design: species or system bovine
Protocol: Introduction. A cycling staining procedure as described in example 6 was again used to measure the staining prevention when bovine enamel was subjected to a cycling staining procedure after being treated with one of four formulations: ToothBoost MOL-6, a 3% solution of OPN pH adjusted to 7.0, a 1.25% solution of sodium bicarbonate pH adjusted to 7.0 and deionised water. The aim of the study was to rank the formulations in terms of their stain prevention capability when bovine enamel was treated with a combination of tea stain and chlorhexidine.
Method. The enamel cores were treated by spraying the assigned treatment onto the enamel face using a single actuation of the ToothBoost spray pack and incubating for two minutes.
The enamel specimens were then cycled between a 1% chlorhexidine solution, a solution of strong tea and artificial saliva for approximately ten cycles per day. At the end of the day of cycling the enamel was rinsed and allowed to dry before the enamel colour measured. The cycling continued for a total of three days of cycling. From the L*a*b* measurements the ΔE76 (change in perceivable colour) was calculated. ΔE76=1 is the smallest perceivable colour change that can be observed.
The cycling continued every day for three days.
After each set of cycling the enamel was rinsed with deionised water and allowed to dry before colour measurements were made. Fresh solutions were made at the start of each set of cycles.
Results. The change in colour of the enamel was calculated from the L*a*b* values where the ΔE76 (The difference between enamel colour before and after cycling) was determined from equation 1: […]

[5] = after the second round of treatments

F [500 ppm fluoride solution, monofluorophosphate]
remineralisation of erosive lesions (Vickers microhardness), statistical comparison [1]: statistically (probability <0.05) better than deionised water
remineralisation of erosive enamel lesions, statistical analysis ([2]; after 5 days of treatment): significant remineralisation
calculated remineralisation ([2]; human enamel, sprayed 0.15 g five times a day for five days, 100% = initial enamel hardness, 0% = after lesion): over 25%

F [1450 ppm fluoride solution, monofluorophosphate]
remineralisation of erosive lesions, statistical comparison ([3]; brushed twice a day for five days): statistically better than deionised water
calculated remineralisation ([3]; human enamel, brushed twice a day, after five days of treatment, N=10): over 23%

O=C([O-])O.[Na+] [sodium bicarbonate]
protection from staining (ΔE76), statistical comparison [4, 5]: statistically the same

OPN solution: 3% solution of OPN (osteopontin) pH adjusted to 7.0
protection from staining (ΔE76), statistical comparison ([4]; after the first set of treatments): statistically more protection than sodium bicarbonate solution
protection from staining (ΔE76), statistical comparison [4, 5]: statistically the same
protection from staining (ΔE76), statistical comparison ([4]; after the third round of treatments): statistically the same
protection from staining (ΔE76), statistical comparison ([4]; after the third round of treatments, listed as OPN): statistically better than sodium bicarbonate
